Test results as given in the supplement of paper PMC10307832.

What was measured:
Experiment in all cases: relative viability (nuclei count vs DMSO), 5 days (fraction); higher = more cells survive
[1] = compound: CC1=C(C(=NN1)C)CC2=C(C3=C(S2)N(C(=O)N(C3=O)C)CC(C)C)C(=O)N4C[C@@H](CO4)O + COc1cccc2cc(-c3nc([C@H]4CC[C@H](C(=O)O)CC4)n4ncnc(N)c34)[nH]c12 [OSI-027] (partner 0.5 µM)
Method in brief: (§1)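 The day after seeding in 1536-well plates, lung cancer cell lines were treated by pin tool with a single drug, or with a fixed anchor-drug dose together with five library-drug doses (not always all listed) in √10 steps. After 5 days, a combined fix-and-stain solution (final 0.05% Triton X-100, 1% formaldehyde, 1 ug/ml Hoechst) was added. Nuclei counted on 4× images gave relative viability as treated counts over vehicle counts, reported as the median of duplicate plates.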

IDH-C35 + Lapatinib = compound: Cc1ccccc1C(C(=O)NC1CCCCC1)N(C(=O)Cn1ccnc1C)c1cccc(F)c1 [IDH-C35] + CS(=O)(=O)CCNCc1ccc(-c2ccc3ncnc(Nc4ccc(OCc5cccc(F)c5)c(Cl)c4)c3c2)o1 [Lapatinib] (partner 2 µM)
Method in brief: as §1

IDH-C35 + Dasatinib = compound: Cc1ccccc1C(C(=O)NC1CCCCC1)N(C(=O)Cn1ccnc1C)c1cccc(F)c1 [IDH-C35] + Cc1nc(Nc2ncc(C(=O)Nc3c(C)cccc3Cl)s2)cc(N2CCN(CCO)CC2)n1 [Dasatinib] (partner 0.075 µM)
Method in brief: as §1

[2] = compound: CC1=C(C(=NN1)C)CC2=C(C3=C(S2)N(C(=O)N(C3=O)C)CC(C)C)C(=O)N4C[C@@H](CO4)O + CS(=O)(=O)N1CCN(Cc2cc3nc(-c4cccc5[nH]ncc45)nc(N4CCOCC4)c3s2)CC1 [Pictilisib] (partner 1 µM)
Method in brief: as §1

Cell Line	relative viability ([1]; first compound 0.0025 µM)	relative viability ([1]; first compound 0.007906 µM)	relative viability ([1]; first compound 0.025 µM)	relative viability ([1]; first compound 0.07906 µM)	relative viability ([1]; first compound 0.25 µM)	relative viability (IDH-C35 + Lapatinib; first compound 0.08 µM)	relative viability (IDH-C35 + Lapatinib; first compound 0.253 µM)	relative viability (IDH-C35 + Lapatinib; first compound 0.8 µM)	relative viability (IDH-C35 + Lapatinib; first compound 2.53 µM)	relative viability (IDH-C35 + Lapatinib; first compound 8 µM)	relative viability (IDH-C35 + Dasatinib; first compound 0.08 µM)	relative viability (IDH-C35 + Dasatinib; first compound 0.253 µM)	relative viability (IDH-C35 + Dasatinib; first compound 0.8 µM)	relative viability (IDH-C35 + Dasatinib; first compound 2.53 µM)	relative viability (IDH-C35 + Dasatinib; first compound 8 µM)	relative viability ([2]; first compound 0.0025 µM)	relative viability ([2]; first compound 0.007906 µM)	relative viability ([2]; first compound 0.025 µM)	relative viability ([2]; first compound 0.07906 µM)	relative viability ([2]; first compound 0.25 µM)
LU99A	0.339	0.335	0.347	0.309	0.294	1.08	0.909	0.938	0.984	1.12	0.684	0.552	0.586	0.639	0.542	0.351	0.314	0.331	0.345	0.327
ABC-1	0.55	0.459	0.583	0.517	0.52	1.3	1	1.03	1.16	1.06	0.583	0.58	0.485	0.476	0.631	0.874	0.844	0.693	0.948	0.737
NCI-H2170	0.736	0.792	0.687	0.726	0.681	0.254	0.259	0.28	0.274	0.272	0.542	0.594	0.594	0.678	0.538	0.228	0.293	0.298	0.341	0.297
NCI-H2347	0.472	0.496	0.444	0.331	0.354	0.99	0.969	0.914	0.902	0.804	0.337	0.3	0.243	0.343	0.282	0.905	0.909	0.507	0.836	0.547
NCI-H1993	0.515	0.539	0.541	0.463	0.57	0.858	0.763	0.79	0.795	0.92	0.654	0.53	0.577	0.559	0.621	0.866	0.888	0.89	0.728	0.756
NCI-H322M	0.529	0.539	0.483	0.64	0.5	0.541	0.59	0.625	0.529	0.608	0.244	0.253	0.26	0.247	0.243	0.519	0.504	0.562	0.58	0.5
NCI-H838	0.396	0.451	0.409	0.384	0.387	1.21	1.07	0.882	1.02	1.02	0.343	0.303	0.298	0.32	0.303	0.506	0.507	0.607	0.511	0.552
HARA	0.548	0.565	0.513	0.506	0.489	0.784	0.84	0.828	0.78	0.809	0.298	0.271	0.294	–	0.328	0.473	0.372	0.369	0.506	0.283
NCI-H2087	0.72	0.506	0.517	0.564	0.54	1.04	1.06	0.867	1.07	0.834	0.944	0.995	0.9	–	0.814	0.958	0.908	0.838	1.04	0.921
NCI-H1437	0.894	0.892	0.867	0.93	0.857	0.942	0.807	0.776	0.904	0.812	0.442	0.448	0.432	0.314	0.308	0.461	0.44	0.451	0.46	0.465
NCI-H1792	0.739	0.816	0.717	0.645	0.652	0.806	0.893	0.87	0.98	0.973	0.725	0.728	0.473	0.944	0.815	0.33	0.263	0.273	0.193	0.246
NCI-H650	0.637	0.509	0.501	0.451	0.647	0.588	0.824	0.85	–	0.884	0.475	0.468	0.462	–	0.433	0.898	0.826	0.819	0.824	0.926
COR-L23	0.876	0.761	0.68	0.678	0.793	1.05	1.09	0.932	1	0.938	0.479	0.438	0.48	0.443	0.445	0.806	0.794	0.522	0.589	0.635
COR-L 105	0.741	0.694	0.663	0.838	0.679	0.33	0.359	0.337	0.34	0.369	0.394	0.394	0.403	0.323	0.349	0.406	0.445	0.376	0.398	0.356
LK-2	0.201	0.184	0.204	0.189	0.228	0.836	1.01	0.758	0.735	0.932	0.243	0.295	0.27	0.299	0.335	0.548	0.509	0.67	0.696	0.607
201T	0.843	0.79	0.72	0.642	0.71	1.05	1.04	1.02	0.973	1.01	0.575	0.569	0.607	0.582	0.529	0.708	0.704	0.688	0.653	0.679
